According to PubChem BioAssay (NCI):
Where “and” joins values, the source holds several entries; their conditions need not be identical. Identical values can stand only once.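 A five-concentration, 48-hour dose response in 96-well plates underlies each endpoint, interpolated linearly between surrounding concentrations. Abbreviation: GI50, concentration required for 50% inhibition of growth. TGI: total growth inhibition.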

Columns and labels:
Assay in all cases: DTP human tumour cell line panel, 48 h
BT-549 breast = tested on: BT-549 breast
RXF 393 renal = tested on: RXF 393 renal
SF-539 CNS = tested on: SF-539 CNS
COLO 205 colon = tested on: COLO 205 colon
HL-60(TB) leukemia = tested on: HL-60(TB) leukemia
HOP-92 NSCLC = tested on: HOP-92 NSCLC
SK-MEL-28 melanoma = tested on: SK-MEL-28 melanoma

SMILES	GI50 (BT-549 breast)	TGI (BT-549 breast)	GI50 (RXF 393 renal)	TGI (RXF 393 renal)	GI50 (SF-539 CNS)	TGI (SF-539 CNS)	GI50 (COLO 205 colon)	TGI (COLO 205 colon)	GI50 (HL-60(TB) leukemia)	TGI (HL-60(TB) leukemia)	GI50 (HOP-92 NSCLC)	TGI (HOP-92 NSCLC)	GI50 (SK-MEL-28 melanoma)	TGI (SK-MEL-28 melanoma)
O=C1/C(=C/C(Cl)=C/c2ccccc2)SC(=S)N1CCc1ccc(O)cc1	3.44 µM	> 100 µM	1.58 µM	3.2 µM	1.72 µM	3.52 µM	2.27 µM	7.69 µM	1.5 µM	> 100 µM	3.18 µM	21.6 µM	1.83 µM	3.93 µM
CC(C)(O)[C@H]1[C@@H]2OC(=O)[C@H]1[C@]1(O)C[C@H]3OC34C(=O)O[C@H]2[C@@]41C (stereo partly specified) (tested in a mixture with another compound)	–	> 100 µM	–	> 100 µM	–	> 100 µM	–	> 100 µM	–	> 100 µM	–	> 100 µM	–	> 100 µM
O=C1C=CC2(C=C1)CCN=c1c(O)c3c(c(O)c12)=NC=N3	18.1 µM and > 100 µM	32.4 µM and > 100 µM	16.2 µM and > 100 µM	30.1 µM and > 100 µM	13.8 µM and > 100 µM	26.9 µM and > 100 µM	21.2 µM and > 100 µM	36.7 µM and > 100 µM	8.02 µM and 59.9 µM	> 100 µM	14.8 µM and > 100 µM	28.9 µM and > 100 µM	15.6 µM and > 100 µM	29.4 µM and > 100 µM
Cn1cc(C2=C(c3c4n(c5ccccc35)CCC(CN)CC4)C(=O)NC2=O)c2ccccc21 (stereo unspecified)	4.7 µM	8.62 µM	3.65 µM	7.1 µM	3.91 µM	7.35 µM	3.49 µM	7.45 µM	5.22 µM	11.5 µM	2.92 µM	7.69 µM	4.17 µM	8.06 µM
COc1cccc2c1c1nc3cc(C)c(C)cc3nc1n2CCN(C)C	2.36 µM	10.2 µM	1.59 µM	3.54 µM	1.92 µM	5.48 µM	0.767 µM	3.31 µM	2.09 µM	6.57 µM	1.13 µM	6.73 µM	1.94 µM	4.23 µM
Cc1cccc(N=C2c3cc([N+](=O)[O-])ccc3-c3c2cc([N+](=O)[O-])cc3[N+](=O)[O-])c1	3.45 µM	11.2 µM	2.28 µM	4.95 µM	17 µM	37.8 µM	3.34 µM	17.1 µM	3.35 µM	13.1 µM	2.47 µM	7.17 µM	13.3 µM	31.3 µM
O=C(O)c1cccc(CC(Br)C(=O)O)c1 (stereo unspecified)	–	> 100 µM	–	> 100 µM	–	> 100 µM	–	> 100 µM	–	> 100 µM	–	> 100 µM	–	> 100 µM
Clc1ccc(CO/N=C(\Cn2ccnc2)c2ccc(Cl)cc2Cl)c(Cl)c1	1.97 µM	3.61 µM	1.61 µM	3.05 µM	1.86 µM	3.34 µM	1.86 µM	3.29 µM	2.08 µM	4.62 µM	1.15 µM	2.53 µM	1.67 µM	3.07 µM
O=C(O)CCC1CCC(c2cc(F)ccc2F)(S(=O)(=O)c2ccc(Cl)cc2)CC1 (stereo unspecified)	10.9 µM and 97.8 µM	43.1 µM and > 100 µM	12.5 µM and 76.6 µM	78.8 µM and > 100 µM	29.4 µM and > 100 µM	> 100 µM	42.3 µM and > 100 µM	> 100 µM	31.3 µM and > 81 µM	> 100 µM	–	95.1 µM and > 100 µM	25.5 µM and > 100 µM	> 100 µM
[N-]=[N+]=CC(=O)OCC(N)C(=O)O (stereo unspecified)	16.7 µM	> 100 µM	4.46 µM	> 100 µM	0.64 µM	> 100 µM	0.778 µM	> 100 µM	0.918 µM	> 100 µM	> 100 µM	> 100 µM	2.94 µM	> 100 µM
CO[C@H]1CC[C@@]2(C)C(=CC[C@H]3[C@@H]4C[C@H](O)C[C@@]4(C)CC[C@@H]32)C1	7.38 µM	22.8 µM	2.49 µM	6.57 µM	3.01 µM	8.64 µM	5.02 µM	16.2 µM	3.69 µM	66.7 µM	1.38 µM	18.1 µM	8.55 µM	22.1 µM
CC[C@H](C)C(=O)O[C@H]1CCC=C2C=C[C@H](C)C(CCC3C[C@@H](O)CC(=O)O3)[C@H]21 (stereo partly specified)	17.2 µM	> 100 µM	3.65 µM	24.4 µM	83.2 µM	> 100 µM	10.5 µM	36.8 µM	11.7 µM	52.9 µM	0.236 µM	5.59 µM	84.9 µM	> 100 µM
COC(=O)Nc1nc2ccc(Oc3ccc(NC(=O)Nc4cccc(Cl)c4)cc3)cc2[nH]1	5.87 µM	> 21.8 µM	0.445 µM	2.34 µM	0.658 µM	6.85 µM	0.916 µM	3.07 µM	0.859 µM	2.92 µM	0.853 µM	5.47 µM	1.84 µM	7.41 µM
COC(=O)C#Cc1ccc([N+](=O)[O-])cc1	–	3.34 µM	–	4.11 µM	–	4.08 µM	–	3.41 µM	–	4.32 µM	–	4.11 µM	–	4.13 µM
CN(C)CC1CCn2c(c(C3=C(c4cn(C)c5ccccc45)C(=O)NC3=O)c3ccccc32)C1 (stereo unspecified)	5.3 µM	12.2 µM	3.3 µM	6.71 µM	3.87 µM	7.49 µM	3.42 µM	7.51 µM	5.87 µM	11.2 µM	1.78 µM	6.55 µM	4.59 µM	8.74 µM
CC(=O)OCC1OC(S[As](C)C)C(OC(C)=O)C1OC(C)=O (stereo unspecified)	0.645 µM	2.87 µM	0.455 µM	2.31 µM	0.226 µM	0.907 µM	0.176 µM	2.66 µM	0.0813 µM	0.648 µM	0.328 µM	2.57 µM	0.446 µM	2.73 µM
CO[C@H](C(=O)N[C@@H](CCCCNC(=O)OCc1ccccc1)C(=O)OC(C)(C)C)[C@@H]1Cc2cc3cc(OC4CC(OC5CC(O)C(O)C(C)O5)C(O)C(C)O4)c(C)c(O)c3c(O)c2C(=O)[C@H]1OC1CC(OC2CC(OC3CC(C)(O)C(O)C(C)O3)C(O)C(C)O2)C(O)C(C)O1 (stereo partly specified)	0.518 µM	1.81 µM	0.705 µM	2.02 µM	0.559 µM	3.08 µM	0.689 µM	3.63 µM	0.971 µM	5.92 µM	0.443 µM	1.97 µM	0.468 µM	1.87 µM
